Laboratory results published in patent US20130217664A1, “NOVEL COMPOUNDS USEFUL FOR THE TREATMENT OF DEGENERATIVE AND INFLAMMATORY DISEASES” (priority 2012, published 2013).
Like-named read-outs stand apart in the source and are kept apart here.

Assays:
human TYK2 = target: T1, human TYK2 (Homo sapiens, UniProt P29597); assay: TYK2 inhibition assay; assay type: biochemical; conditions: recombinant human TYK2 catalytic domain, polyGT substrate
T1 construct: catalytic domain (amino acids 871-1187; catalog number 08-147); purchased Carna Biosciences 08-147
T1 sequence (P29597 871-1187): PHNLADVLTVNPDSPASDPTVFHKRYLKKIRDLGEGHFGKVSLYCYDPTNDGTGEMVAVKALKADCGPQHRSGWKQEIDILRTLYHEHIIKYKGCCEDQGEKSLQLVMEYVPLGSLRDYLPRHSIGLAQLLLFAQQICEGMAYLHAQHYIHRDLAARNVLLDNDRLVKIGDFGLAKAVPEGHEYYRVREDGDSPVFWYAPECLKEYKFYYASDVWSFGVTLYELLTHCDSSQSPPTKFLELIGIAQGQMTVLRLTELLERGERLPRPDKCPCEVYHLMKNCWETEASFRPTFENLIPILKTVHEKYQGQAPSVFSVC
How it was run: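 Radiometric kinase reaction run 90 min at 30 °C, stopped with phosphoric acid, washed and scintillation-counted.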

human JAK3 = target: T2, human JAK3 (Homo sapiens, UniProt P52333); assay: JAK3 inhibition assay; assay type: biochemical; conditions: recombinant human JAK3 catalytic domain; polyGT substrate
T2 construct: catalytic domain (amino acids 781-1124; catalog number PV3855); purchased Invitrogen PV3855
How it was run: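 Radiometric kinase assay: 0.5 ng JAK3 with 2.5 μg polyGT in Tris pH 7.5/MgCl2 buffer, 1 μM ATP plus 0.25 μCi 33P-γ-ATP, 1% DMSO, 45 min at 30 °C, stopped with phosphoric acid.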

[1] = test system: pSTAT1(2)-luciferase reporter in HeLa cells triggered with human OSM; assay: JAK-STAT signalling assay; assay type: cell-based; conditions: read-out: JAK-STAT IC50
How it was run: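 Compound added 60 min before 33 ng/mL (final) human OSM; after overnight stimulation at 37 °C, luciferase signal from a transiently transfected pSTAT1(2) reporter in HeLa cells was read, with LacZ as internal control. EC50 derived from percent-inhibition dose-response curves.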

human JAK1 = target: T3, human JAK1 (Homo sapiens, UniProt P23458); assay: JAK1 inhibition assay (polyGT substrate / Ulight-JAK1 peptide); assay type: biochemical; conditions: recombinant human JAK1 catalytic domain; polyGT or Ulight-JAK1 peptide assay
T3 construct: catalytic domain, amino acids 866-1154; catalog number PV4774; purchased Invitrogen PV4774
How it was run: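 Signal scaled between vehicle and 10 μM staurosporine. Radiometric polyGT reactions ran 45 min at 30 °C, counted after phosphoric-acid stop. Ulight peptide reactions ran 60 min at room temperature, fluorescence read after adding Eu-PT66 detection mix with EDTA.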

CTLL-2 cell line = assay: CTLL2 viability assay; assay type: cell-based; conditions: Mus musculus, IL-2 dependent CTLL2 viability, 24 h, ATP-lite
Excerpt: The protocol describes the methods to analyse the activity of compounds on their ability to sustain the IL2-dependent viability of CTLL2.
Final DMSO concentration was 0.1%.

human JAK2 = target: T4, human JAK2 (Homo sapiens, UniProt O60674); assay: JAK2 inhibition assay (polyGT substrate / Ulight-JAK1 peptide); assay type: biochemical; conditions: recombinant human JAK2 catalytic domain; polyGT or Ulight-JAK1 peptide assay
T4 construct: catalytic domain (amino acids 808-1132; catalog number PV4210); GST; purchased Invitrogen PV4210
How it was run: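 Two JAK2 formats: a ^33P-ATP polyGT assay (1 μM cold ATP, 90 min, 30° C., cpm read-out) and a Ulight-JAK1 peptide assay read by Europium-anti-phosphotyrosine fluorescence after 60 min at room temperature.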

[2] = Homo sapiens, HeLa, HeLa cells, pSTAT1(2)-luciferase reporter, human OSM 33 ng/mL

T4 sequence (O60674 808-1132): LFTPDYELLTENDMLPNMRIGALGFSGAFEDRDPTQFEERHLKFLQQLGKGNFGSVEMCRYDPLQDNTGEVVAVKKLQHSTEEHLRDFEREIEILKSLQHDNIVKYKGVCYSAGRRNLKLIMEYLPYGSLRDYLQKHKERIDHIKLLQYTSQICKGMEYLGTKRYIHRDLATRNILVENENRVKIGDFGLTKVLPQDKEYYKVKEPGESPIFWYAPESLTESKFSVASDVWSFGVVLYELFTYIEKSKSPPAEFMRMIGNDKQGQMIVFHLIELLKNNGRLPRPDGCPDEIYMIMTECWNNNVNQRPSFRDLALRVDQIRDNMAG
T3 sequence (P23458 866-1154): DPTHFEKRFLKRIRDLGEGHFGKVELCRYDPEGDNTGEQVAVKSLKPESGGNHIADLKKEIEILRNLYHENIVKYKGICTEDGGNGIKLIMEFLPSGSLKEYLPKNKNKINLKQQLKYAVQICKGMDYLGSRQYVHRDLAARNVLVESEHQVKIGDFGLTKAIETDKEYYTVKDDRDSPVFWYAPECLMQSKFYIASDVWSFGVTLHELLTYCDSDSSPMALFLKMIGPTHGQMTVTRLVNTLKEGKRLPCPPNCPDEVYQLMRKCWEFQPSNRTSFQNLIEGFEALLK
T2 sequence (P52333 781-1124): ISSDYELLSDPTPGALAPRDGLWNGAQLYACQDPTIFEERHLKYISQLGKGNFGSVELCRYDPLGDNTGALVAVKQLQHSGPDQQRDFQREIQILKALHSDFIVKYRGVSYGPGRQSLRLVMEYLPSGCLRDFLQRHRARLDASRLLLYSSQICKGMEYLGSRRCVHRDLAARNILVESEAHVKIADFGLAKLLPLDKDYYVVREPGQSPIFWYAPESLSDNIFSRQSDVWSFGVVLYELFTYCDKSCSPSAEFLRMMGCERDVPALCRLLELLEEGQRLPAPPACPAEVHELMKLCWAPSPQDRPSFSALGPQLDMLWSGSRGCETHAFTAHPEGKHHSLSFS

Row | SMILES | IC50 (human TYK2) [nM] | IC50 (human JAK3) [nM] | IC50 [1, 2] [nM] | IC50 (human JAK1) [nM] | IC50 ([1]; HeLa cells, pSTAT1(2)-luciferase reporter, human OSM 33 ng/mL) [nM] | IC50 ([1]; Homo sapiens, HeLa) [nM] | IC50 (CTLL-2 cell line) [nM] | IC50 (human JAK2) [nM]
1 | COC(=O)NCc1ccc(N(C)c2cc3c(cn2)ncn3C)c(F)c1 [Compound 283, {3-Fluoro-4-[methyl-(1-methyl-1H-imidazo[4,5-c]pyridin-6-yl)-amino]-benzyl}-carbamic acid methyl ester] | 101 to 500 | > 1000 | > 1000 | 0.01 to 100 | – | – | – | –
2 | CCc1ccccc1N(CC(F)F)c1cc2c(cn1)ncn2C [Compound 284, (2,2-Difluoro-ethyl)-(2-ethyl-phenyl)-(1-methyl-1H-imidazo[4,5-c]pyridin-6-yl)-amine] | 0.01 to 100 | 101 to 500 | 501 to 1000 | 0.01 to 100 | – | – | – | –
3 | CN(c1cc2c(cn1)ncn2C)c1ccc(C2CCN(S(C)(=O)=O)CC2)cc1OC(F)F [Compound 287, N-(2-(Difluoromethoxy)-4-(1-(methylsulfonyl)piperidin-4-yl)phenyl)-N,1-dimethyl-1H-imidazo[4,5-c]pyridin-6-amine] | 0.01 to 100 | 0.01 to 100 | – | 0.01 to 100 | 1 to 500 | – | – | –
4 | CCc1cc(OCC#N)ccc1N(C)c1cc2c(cn1)ncn2C [Compound 295, 2-(3-ethyl-4-(methyl(1-methyl-1H-imidazo[4,5-c]pyridin-6-yl)amino)phenoxy)acetonitrile] | 0.01 to 100 | 101 to 500 | – | 0.01 to 100 | – | 1 to 500 | – | –
5 | CN(c1cc2c(cn1)ncn2C)c1ccc(C2CN(CC(F)F)C2)cc1OC(F)F [Compound 365, {4-[1-(2,2-Difluoro-ethyl)-azetidin-3-yl]-2-difluoromethoxy-phenyl}-methyl-(1-methyl-1H-imidazo[4,5-c]pyridin-6-yl)-amine] | 501 to 1000 | 101 to 500 | – | 0.01 to 100 | – | – | > 1000 | 101 to 500
6 | CN(c1cc2c(cn1)ncn2C)c1ccc(C2CN(S(=O)(=O)N3CCCCC3)C2)cc1OC(F)F [Compound 372, {2-Difluoromethoxy-4-[1-(piperidine-1-sulfonyl)-azetidin-3-yl]-phenyl}-methyl-(1-methyl-1H-imidazo[4,5-c]pyridin-6-yl)-amine] | 101 to 500 | 501 to 1000 | – | 0.01 to 100 | – | – | > 1000 | 101 to 500
7 | CC(C)S(=O)(=O)N1CC(c2ccc(N(C)c3cc4c(cn3)ncn4C)c(OC(F)F)c2)C1 [Compound 373, {2-Difluoromethoxy-4-[1-(propane-2-sulfonyl)-azetidin-3-yl]-phenyl}-methyl-(1-methyl-1H-imidazo[4,5-c]pyridin-6-yl)-amine] | > 1000 | 501 to 1000 | – | 0.01 to 100 | – | – | > 1000 | 101 to 500
8 | CCc1cc(C2CCN(CC#N)CC2)ncc1N(C)c1cc2c(cn1)ncn2C [Compound 384, {4-Ethyl-5-(methyl-(1-methyl-1H-imidazo[4,5-c]pyridin-6-yl)-amino)-3′,4′,5′,6′-tetrahydro-2′H-(2,4′]bipyridinyl-1′-yl}-acetonitrile] | 101 to 500 | > 1000 | – | 0.01 to 100 | – | – | > 1000 | 101 to 500
9 | CCc1cc(N2CC[C@@H](F)C2)ncc1N(C)c1cc2c(cn1)ncn2C [Compound 414, [4-Ethyl-6-((R)-3-fluoro-pyrrolidin-1-yl)-pyridin-3-yl]-methyl-(1-methyl-1H-imidazo[4,5-c]pyridin-6-yl)-amine] | 0.01 to 100 | 101 to 500 | – | 0.01 to 100 | – | – | > 1000 | 0.01 to 100
10 | CCc1cc(N2CC[C@H](F)C2)ncc1N(C)c1cc2c(cn1)ncn2C [Compound 415, [4-Ethyl-6-((S)-3-fluoro-pyrrolidin-1-yl)-pyridin-3-yl]-methyl-(1-methyl-1H-imidazo[4,5-c]pyridin-6-yl)-amine] | 0.01 to 100 | 0.01 to 100 | – | 0.01 to 100 | – | – | > 1000 | 0.01 to 100
11 | CCc1cc(CN2CC3(COC3)C2)ccc1N(C)c1cc2c(cn1)ncn2C [Compound 419, [2-Ethyl-4-(2-oxa-6-aza-spiro[3.3]hept-6-ylmethyl)-phenyl]-methyl-(1-methyl-1H-imidazo[4,5-c]pyridin-6-yl)-amine] | > 1000 | > 1000 | – | 101 to 500 | – | – | > 1000 | > 1000
12 | CCc1cc(CN2CCC(S(C)(=O)=O)C2)ccc1N(C)c1cc2c(cn1)ncn2C (stereo not shown) [Compound 420, [2-Ethyl-4-(3-methanesulfonyl-pyrrolidin-1-ylmethyl)-phenyl]-methyl-(1-methyl-1H-imidazo[4,5-c]pyridin-6-yl)-amine] | 101 to 500 | > 1000 | – | 0.01 to 100 | – | – | > 1000 | 101 to 500
13 | CCc1cc(CN2CCNC(=O)C2)ccc1N(C)c1cc2c(cn1)ncn2C [Compound 421, 4-{3-Ethyl-4-[methyl-(1-methyl-1H-imidazo[4,5-c]pyridin-6-yl)-amino]-benzyl}-piperazin-2-one] | 0.01 to 100 | 501 to 1000 | – | 0.01 to 100 | – | – | > 1000 | 101 to 500
14 | CCc1cc(CN2CCC(F)(F)CC2)ccc1N(C)c1cc2c(cn1)ncn2C [Compound 422, [4-(4,4-Difluoro-piperidin-1-ylmethyl)-2-ethyl-phenyl]-methyl-(1-methyl-1H-imidazo[4,5-c]pyridin-6-yl)-amine] | 501 to 1000 | > 1000 | – | 0.01 to 100 | – | – | > 1000 | 501 to 1000
15 | CCc1cc(CNS(N)(=O)=O)ccc1N(C)c1cc2c(cn1)ncn2C [Compound 423, N-{3-Ethyl-4-[methyl-(1-methyl-1H-imidazo[4,5-c]pyridin-6-yl)-amino]-benzyl}-aminosulfonamide] | 0.01 to 100 | 0.01 to 100 | – | 0.01 to 100 | – | – | > 1000 | 0.01 to 100
16 | CCc1cc(CNS(=O)(=O)N2CC(F)(F)C2)ccc1N(C)c1cc2c(cn1)ncn2C [Compound 424, 3,3-Difluoro-azetidine-1-sulfonic acid 3-ethyl-4-[methyl-(1-methyl-1H-imidazo[4,5-c]pyridin-6-yl)-amino]-benzylamide] | 101 to 500 | 101 to 500 | – | 0.01 to 100 | – | – | > 1000 | 0.01 to 100
17 | CCc1cc(CNS(=O)(=O)N2CCC(F)(F)C2)ccc1N(C)c1cc2c(cn1)ncn2C [Compound 425, 3,3-Difluoro-pyrrolidine-1-sulfonic acid 3-ethyl-4-[methyl-(1-methyl-1H-imidazo[4,5-c]pyridin-6-yl)-amino]-benzylamide] | 101 to 500 | 101 to 500 | – | 0.01 to 100 | – | – | > 1000 | 0.01 to 100
18 | CCc1cc(CNS(=O)(=O)N2CCOCC2)ccc1N(C)c1cc2c(cn1)ncn2C [Compound 426, Morpholine-4-sulfonic acid 3-ethyl-4-[methyl-(1-methyl-1H-imidazo[4,5-c]pyridin-6-yl)-amino]-benzylamide] | 101 to 500 | 101 to 500 | – | 0.01 to 100 | – | – | > 1000 | 0.01 to 100
19 | CCc1cc(C2CCCCC2)ncc1N(C)c1cc2c(cn1)ncn2C [Compound 432, (6-Cyclohexyl-4-ethyl-pyridin-3-yl)-methyl-(1-methyl-1H-imidazo[4,5-c]pyridin-6-yl)-amine] | 101 to 500 | > 1000 | – | 0.01 to 100 | – | – | > 1000 | 101 to 500
